US10101324B2, “Non-competitive immunoassays to detect small molecules using nanopeptamers” (priority 2012, dated 2018)

Experiments:
[1] = system: MoAb 14D7; conditions: molinate; same antibody MoAb 14D7; Rufo et al. 2004; cited from earlier work
[2] = system: anti-molinate monoclonal antibody (MoAb 14D7); test: Cross-reactivity of the pA-Nanopeptamer noncompetitive ELISA with related thiocarbamate pesticides; format: binding
[3] = system: MoAb 5.6; conditions: clomazone, Carlomagno et al. 2010; cited from earlier work

Structure (SMILES)	Cross reactivity, pA-Nanopeptamer assay [2] [%]	other results
CCSC(=O)N1CCCCCC1 [Molinate]	–	IC50 of the competitive ELISA [1]: 69 ± 0.5 ng/mL
CCCCN(CC)C(=O)SCCC [Pebulate]	6	–
CC1(C)CON(Cc2ccccc2Cl)C1=O [clomazone]	–	IC50 of the competitive format [3]: 28 ± 1.1 ng/mL
CCN(CC)C(=O)SCc1ccc(Cl)cc1 [thiobencarb]	0	–
